In patent US7375125B2, “Melanocortin-4 receptor binding compounds and methods of use thereof” (Ore Pharmaceuticals, Inc., priority 1999, dated 2008):
Where a name gives a salt, the structure may show the parent alone.

System: lean C57BL/6J mice
Test: In vivo assay for MC4-R antagonist activity: food intake of food deprived lean mice treated with MT II
Conditions: 15 nmol intracerebroventricular prior to MT II 0.05 nmol, six hour period (FIGS. 2, 3)
Procedure: The following in vivo assay was used to test the effects of MC4-R antagonists on mice.
Male lean C57BL/6J mice were individually housed in macrolon cages (22±2 C.°; 12:12 h light/dark cycle with lights off at 6 pm). Tap water and mouse chow diet were given ad libitum. Mice were stereotaxically implanted with a chronic guide cannula aimed to the third ventricle (intracerabroventricular) one week prior to testing.
In this experiment, food deprived lean mice were injected intracerabroventricularly with either Compound N or Compound O, at a dose of 15 nmol prior to injection of MT II at the dose of 0.05 nmol.

Row | Structure (SMILES) | effect on food intake of mice treated with the MC4-R agonist MT II
1 | c1ccc(C2=NCCCN2)c(SCc2cccc3ccccc23)c1 [O, 2-[2-(Naphthalen-1-ylmethylsulfanyl)-phenyl]-1,4,5,6-tetrahydro-pyrimidine; hydrochloride] | did not significantly effect the food intake
2 | COc1ccc([N+](=O)[O-])cc1CSc1ccccc1C1=NCCCN1 [N, 2-[2-(2-Methoxy-5-nitro-benzylsulfanyl)-phenyl]-1,4,5,6-tetrahydro-pyrimidine; hydrobromide] | partially reverses the effect
